From patent US11740235B2, “Model-membrane-based lipid transfer assays and methods” (Regents of the University of Minnesota, priority 2019, dated 2023)
“Also recorded” adds a separate entry of the source.

Columns and labels:
Assay type in all cases: biochemical
ACD11 [1] = molecular target: T1, ACD11 (Arabidopsis thaliana, UniProt O64587); test: Bicelle-dilution FRET assay, competitive inhibition of BODIPY-C1P transfer; conditions: increasing concentrations in donor bd-vesicles; donor q=0.5, acceptor q=0.5
T1 construct: 6xHis-SUMO (N, cleaved yes); made in house; host or cells: E. coli BL21 (DE3)-pLysS or -Star
T1 sequence (O64587 1-206): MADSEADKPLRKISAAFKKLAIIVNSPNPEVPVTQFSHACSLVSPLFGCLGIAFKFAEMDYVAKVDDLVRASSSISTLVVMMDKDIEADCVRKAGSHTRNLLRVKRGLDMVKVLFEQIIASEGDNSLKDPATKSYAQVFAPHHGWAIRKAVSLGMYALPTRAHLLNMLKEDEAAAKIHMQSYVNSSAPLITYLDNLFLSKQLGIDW
Text: The C1P derivative, diethyl-C1P, can inhibit cytosolic phospholipase A2α (cPLA2α) activity when the C1P acyl chain is short—e.g., C2-diethyl-C1P. The inhibition of cPLA2α by C2-diethyl-C1P presumably occurs via interaction with the cPLA2α C2-domain, which contains a C1P binding site that activates cPLA2α by enhancing translocation to membranes. To date, no inhibitors of C1P transfer proteins (e.g., CPTP and ACD11) have been reported. The bicelle-dilution FRET assay was used to test whether C2-diethyl-C1P can inhibit the plant CPTP ortholog, ACD11. […]
(§1) Real-time intermembrane transfer rates of fluorescent sphingolipids were obtained by Förster resonance energy transfer (FRET) using a SPEX FluoroLog3 spectrofluorometer (Horiba Scientific, Ltd., Kyoto, Japan), with excitation and emission band passes of 2 nm and a stirred (˜100 rpm), temperature-controlled (25±0.1° C.) sample cuvette holder. […] Either sonicated POPC vesicles or b-d POPC/DHPC model membranes served as receiver (acceptor) model membranes, which produced minimal change in fluorescence signal when added in excess (Mattjus et al., 1999, Anal. Biochem. 268:297-304). […]

ACD11 [2] = molecular target: T1, ACD11; test: Bicelle-dilution FRET lipid transfer assay, lipid specificity; conditions: donor q=0.5, acceptor q=0.5
Method: (§2) For experiments requiring ˜10 kinetic assays, donor stock lipid mixtures (0.5 q-value) were prepared by combining POPC (0.39 μmol), BODIPY-15-SL (0.004 μmol), DiI-C18 (0.006 μmol) and DHPC (0.8 μmol) from stock solvent solutions of hexane/ethanol (9:1) or chloroform/methanol (8:2). Acceptor stock lipid mixtures (0.5 q-value) were prepared by combining POPC (2 μmol) and DHPC (4 μmol) from stock solvent solutions. Total solvent volume in the clean glass vials containing inverted conical bottoms was approximately 100 μl. For other q-value stocks, the amount of DHPC was adjusted accordingly. Dry films of the lipid mixtures were obtained using a stream of nitrogen to evaporate all solvent at room temperature. The dry lipid films were hydrated by adding 200 μl of assay buffer (10 mM potassium phosphate, pH 6.6, 150 mM NaCl, and 0.2% EDTA) and then vortexed vigorously for at least five minutes to achieve optical clarity. For stocks with q-values of 1 or 2, lipid mixtures were not only vortexed vigorously but also sonicated briefly (2 to 3 minutes). All stocks were equilibrated overnight at room temperature prior to use in the lipid transfer assay regardless of q-value [q-value for donors=(POPC+BODIPY-15-SL+DiIC18)/DHPC; q-value for acceptors=POPC/DHPC]. Immediately prior to use in the FRET lipid transfer assay, donor and acceptor stocks were centrifuged for 10 minutes at 13,000 rpm. The FRET lipid transfer assay as performed as follows: donor stock (20 μl) was diluted into a stirred temperature-controlled cuvette containing assay buffer an equilibrated for two minutes to ensure a stable signal response. Next, acceptor stock (20 μl was diluted into the stirred cuvette and equilibrated for four minutes prior to initiating sphingolipid transfer by adding lipid transfer protein (2 μg) to a final cuvette volume of 2.5 ml. The total lipid concentration was 288 μM for assays using a 5:1 acceptor-to-donor ratio and was higher when more acceptors were added to increase transfer equilibrium from the donors.
(§3) Real-time intermembrane transfer rates of fluorescent sphingolipids were obtained by Förster resonance energy transfer (FRET) using a SPEX FluoroLog3 spectrofluorometer (Horiba Scientific, Ltd., Kyoto, Japan), with excitation and emission band passes of 2 nm and a stirred (˜100 rpm), temperature-controlled (25±0.1° C.) sample cuvette holder. All fluorescent lipids were localized initially to the SL-source (donor) vesicles (formed by rapid ethanol injection or probe sonication) or SL-source (donor) b-d model membranes. Minimal BODIPY-lipid emission occurred upon excitation (460 nm) due to resonance energy transfer to nearby C18-DiI. Either sonicated POPC vesicles or b-d POPC/DHPC model membranes served as receiver (acceptor) model membranes, which produced minimal change in fluorescence signal when added in excess (Mattjus et al., 1999, Anal. Biochem. 268:297-304). The final receiver (acceptor) vesicle concentration in the FRET lipid transfer assay was ˜240 μM to 1440 μM, which was five-fold to 30-fold higher than the SL-source (donor) vesicle concentration. Protein addition triggered a sudden, hyperbolic increase in BODIPY emission intensity (503 nm) as FRET decreased due to protein transport of fluorescent glycolipids from SL-source (donor) vesicles to receiver (acceptor) vesicles, creating separation from nontransferable C18-DiI lipid, as the protein delivers the BODIPY-SL to the excess POPC receiver vesicles or POPC/DHPC bicelles. Addition of Tween-20 detergent after extended incubation provided a measure of maximum intensity achievable by “infinite” fluorophore separation.

GLTP [3] = molecular target: T2, GLTP (Homo sapiens, UniProt Q9NZD2); test: as above; conditions: for transfer by GLTP between bd donors and acceptors: donor q=0.5, acceptor q=0.5
T2 construct: 6xHis-SUMO (N, cleaved yes); made in house; host or cells: E. coli BL21 (DE3)-pLysS or -Star
T2 sequence (Q9NZD2 1-209): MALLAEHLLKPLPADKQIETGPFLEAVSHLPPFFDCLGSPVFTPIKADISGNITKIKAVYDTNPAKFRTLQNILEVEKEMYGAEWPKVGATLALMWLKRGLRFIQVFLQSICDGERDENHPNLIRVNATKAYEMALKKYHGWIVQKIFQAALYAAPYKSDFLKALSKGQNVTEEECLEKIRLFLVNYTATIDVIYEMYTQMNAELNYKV
Method: as §2, §3

GFP-GLTP = test: Bicelle-dilution FRET lipid transfer assay with HeLa cell lysate; conditions: lysate of transfected HeLa cells, 10 μl aliquots; donor q=0.5, acceptor q=0.5
Method: (§4) FIG. 14. Bicelle-dilution-model-membrane-assay detection of transfer activity by GLTP and CPTP expressed in HeLa cells after transient transfection with GFP-GLTP or GFP-CPTP. Cells were disrupted by brief probe sonication (30 sec×2) on ice. Cell supernatants were recovered by benchtop centrifugation (5 min @ 12,000 rpm) at 4° C. and then 10 μl aliquots were assayed for LTP activity. (Donor: q=0.5; Acceptor: q=0.5).
(§5) HeLa cells were plated on 100-mm dishes and transfected with different vectors using Lipofectamine 2000 (Invitrogen, Carlsbad, Calif.). At 24 hours post-transfection, cells were harvested by trypsinization, washed with phosphate-buffered saline (PBS) by benchtop centrifugation and then suspended in PBS buffer (200 μl). Disruption of the HeLa cells was accomplished by brief probe sonication (2×30 seconds) on ice. Cell supernatants were recovered by benchtop centrifugation (5 minutes at 12,000 rpm) at 4° C. and 10 μl aliquots were assayed for SLTP activity using donor bicelle-dilution vesicles containing either Me4-BODIPY-GalCer or Me4-BODIPY-C1P along with C18-DiI.

GFP-CPTP = test: as above; conditions: lysate of transfected HeLa cells, 10 μl aliquots; donor q=0.5, acceptor q=0.5
Sequence of GFP-CPTP (Q5TA50 whole entry): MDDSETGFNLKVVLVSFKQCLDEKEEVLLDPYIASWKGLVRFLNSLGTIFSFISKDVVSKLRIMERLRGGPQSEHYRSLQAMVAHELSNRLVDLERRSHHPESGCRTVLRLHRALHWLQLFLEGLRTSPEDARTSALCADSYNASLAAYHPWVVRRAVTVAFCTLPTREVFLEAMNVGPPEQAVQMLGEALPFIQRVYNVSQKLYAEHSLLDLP
Method: as §4, §5

GLTP [4] = molecular target: T2, GLTP; test: FRET lipid transfer control with DHPC in assay buffer, ethanol-injection donors and sonicated acceptors; conditions: DHPC 352 μM and 672 μM in assay buffer; ethanol-injection donors, sonicated acceptors (5×)
Method: Small phosphatidylcholine vesicles (25-40 nm diameters) have typically been used as model membranes to assess lipid inter-bilayer transfer because of the faster transfer rates compared to those obtained using larger vesicles. Different donor and acceptor combinations were tested involving either small vesicles and/or 0.5 q-value bicelle dilution vesicles (bd-vesicles) to determine which combination produced the fastest intermembrane transfer rates. […] When the donor vesicles were produced by sonication, sphingolipid transfer rates were markedly slowed regardless of whether the acceptors were bd-vesicles or sonicated vesicles. […] Thus, similar high assay sensitivity can be achieved using the bicelle-to-bicelle transfer conditions as for vesicle-to-vesicle transfer conditions. […]
as §1

| Compound | transfer by ACD11 between bd donors and acceptors (ACD11 [2]) | transfer by GLTP between bd donors and acceptors (GLTP [3]) | bd-vesicle-to-bd-vesicle transfer by GFP-GLTP (GFP-GLTP) | other results |
| --- | --- | --- | --- | --- |
| ceramide-1-phosphate [C1P] | – | – | – | competition effect on ACD11-mediated transfer rates of Me4-BODIPY C1P (ACD11 [1]): Slowing of ACD11 transfer of BODIPY-C1P; also recorded: slow the inter-bicelles transfer rates |
| Me4-BODIPY-15-galactosylceramide [Me4-BODIPY GalCer] | not | is detected | transfer | transfer equilibrium by GLTP (GLTP [3]; bicelle-dilution vesicles, 100% estimated by Tween-20 solubilization): ~70%; transfer by GLTP between bd donors and acceptors (GLTP [3]; listed as BODIPY-GalCer): transfer |
| Me4-BODIPY-15-ceramide-1-phosphate [Me4-BODIPY C1P] | specifically transfers | not | not | transfer by ACD11 between bd donors and acceptors (ACD11 [2]; listed as BODIPY-C1P): transfer; bd-vesicle-to-bd-vesicle transfer by GFP-CPTP (GFP-CPTP): transfer |
| CCCCCC(=O)OC[C@H](COP(=O)([O-])OCC[N+](C)(C)C)OC(=O)CCCCC [DHPC, 1,2-hexanoyl-sn-glycero-3-phosphocholine] | – | – | – | effect on GLTP transfer rate of Me4-BODIPY-GalCer (GLTP [4]): Lack of significant effect; also recorded: Minimal affect |
